Holding throughout (experiment): MTT cytotoxicity assay, 48 h, alone and in combination (IC50 and Combination Index)
Type in all cases: cell-based
On the technique in general: Tetrazolium dyes change colour on reduction, which living cells bring about.

The subject of one experiment is PANC-1 cell line. The settings on record: Homo sapiens. As to the method: The cytotoxic effect on each combination was determined by MTT assay.
(§1) Combination Index (CI) values were determined for each drug concentration combination. The CI values were calculated based on the IC50 values using the formula as given in below.

Another experiment relates to KB cell line.
The subject of a further experiment is HT-29 cell line. The settings on record: Homo sapiens.
In another experiment the test system is MDA-MB-231 cell line. To be noted: read-out: IC50 of Carboplatin. The protocol: (§2) The cell were kept in contact with the recombinant lectin of SEQ ID NO: 1 and the chemotherapy agent for 48 h and the cytotoxic effect (percentage cytotoxicity) was measured. The cytotoxic effect was determined by well-known colorimetric MTT assay (Mossman, T. 1983 Rapid colorimetric assay for cellular growth and survival: application to proliferation and cytotoxicity assays Journal of Immunological Methods, volume 65, pages 55-63) for assessing cell metabolic activity.
(§3) Based on percentage cytotoxicity data, IC50 values were determined using the software GraphPad Prism version 4.01.
as §1
A study was performed to determine the effect of the concentration of the recombinant lectin represented by SEQ ID NO: 1 on the IC50 of Paclitaxel for cytotoxicity in MDA-MB-231 cells. Conversely the effect of the concentration of Paclitaxel on the IC50 of the recombinant lectin represented by SEQ ID NO: 1.
Similarly another study was performed for Carboplatin in combination with the recombinant lectin of SEQ ID NO: 1.
In a further study, MDA-MB-231 cells were treated with Paclitaxel (0.001 nM-10 nM) in combination with SEQ ID NO: 1(2.5 μg/mL-80 μg/mL) for 48 h. Similarly another set of cells were treated with Carboplatin (10 μM-1000 μM) in combination with SEQ ID NO: 1 (2.5 μg/mL-80 μg/mL).

The test system of another experiment is PA-1 cell line. The settings on record: read-out: IC50 of Cisplatin.
A further experiment deals with T24 cell line. To be noted: for Conc. of other therapeutic agents showing synergistic effect: paired with SEQ ID NO: 1 conc. The protocol: as §2, §3, §1
A study was performed to determine the effect of the concentration of the recombinant lectin represented by SEQ ID NO: 1 on the IC50 of Cisplatin for cytotoxicity in T24 cells. Conversely the effect of the concentration of Cisplatin on the IC50 of the recombinant lectin represented by SEQ ID NO: 1.
Similarly another study was performed for Gemcitabine in combination with the recombinant lectin of SEQ ID NO: 1.
This was performed using the same techniques as in Example 1-1.
In a further study, T24 cells were treated with Cisplatin (1 μM-500 μM) in combination with SEQ ID NO: 1(2.5 μg/mL-80 μg/mL) for 48 h. Similarly another set of cells were treated with Gemcitabine (1 μM-300 μM) in combination with SEQ ID NO: 1 (2.5 μg/mL-80 μg/mL). Combination Index values were determined for each drug combination and resultant antagonistic, additive or synergistic effect was determined, as described in Example 1-2.

The mark [1] stands for this setting: SEQ ID NO: 1 at 0 μg/mL, read-out: IC50 of Cisplatin.
The mark [2] stands for this setting: SEQ ID NO: 1 at 5 μg/mL, read-out: IC50 of Cisplatin.
[3] abbreviates: SEQ ID NO: 1 at 10 μg/mL, read-out: IC50 of Cisplatin.
The mark [4] stands for this setting: SEQ ID NO: 1 at 20 μg/mL, read-out: IC50 of Cisplatin.
Where [5] appears, read: SEQ ID NO: 1 at 40 μg/mL, read-out: IC50 of Cisplatin.

Five compounds from patent publication US20220257704A1, “COMBINATION OF CHEMOTHERAPY WITH RECOMBINANT S. ROLFSII LECTIN” (Unichem Laboratories Ltd, priority 2018, published 2022) can be followed below.

Read-outs that look alike come from different tables or passages of the source.

Description for KB cell line: A study was performed to determine the effect of the concentration of the recombinant lectin represented by SEQ ID NO: 1 on the IC50 of5-FU for cytotoxicity in KB cells.
Similarly another study was performed for Cisplatin in combination with the recombinant lectin of SEQ ID NO: 1.
Similarly another set of cells were treated with Cisplatin(0.1 μM to 1.5 μM)in combination with SEQ ID NO: 1(5.0 μg/mL-90 μg/mL).
Description for PA-1 cell line: In a further study, PA-1 cells were treated with Cisplatin(0.01 μM-5 μM) in combination with SEQ ID NO: 1(1 μg/mL-20 μg/mL) for 48 h. Similarly another set of cells were treated with Paclitaxel (0.01 nM-5 nM) in combination with SEQ ID NO: 1 (1 μg/mL-20 μg/mL).

With `O=c1[nH]cc(F)c(=O)[nH]1` [5-FU, 5-Fluorouracil, reference compound], the IC50 in the experiment with PANC-1 cell line (PANC-1, read-out: IC50 of 5-FU, SEQ ID NO: 1 at 0 μg/mL) turned out to be 87000 nM; with PANC-1 cell line (PANC-1, read-out: IC50 of 5-FU, SEQ ID NO: 1 at 5 μg/mL), 1410 nM; in the experiment on PANC-1 cell line (PANC-1, read-out: IC50 of 5-FU, SEQ ID NO: 1 at 10 μg/mL), 1260 nM; with PANC-1 cell line (PANC-1, read-out: IC50 of 5-FU, SEQ ID NO: 1 at 20 μg/mL), 869 nM; in the experiment on PANC-1 cell line (PANC-1, read-out: IC50 of 5-FU, SEQ ID NO: 1 at 40 μg/mL), 8450 nM; with PANC-1 cell line (PANC-1, read-out: IC50 of 5-FU, SEQ ID NO: 1 at 80 μg/mL), 725 nM. Moreover, the IC50 came to 297000 nM in the experiment on PANC-1 cell line (PANC-1, read-out: IC50 of 5-FU, SEQ ID NO: 1 at […]); 15 nM with KB cell line (Homo sapiens, KB, read-out: IC50 of 5-FU, SEQ ID NO: 1 at 0 μg/mL); 0.1 nM in the experiment with KB cell line (Homo sapiens, KB, read-out: IC50 of 5-FU, SEQ ID NO: 1 at 5 μg/mL); 0.00531 nM in the experiment with KB cell line (Homo sapiens, KB, read-out: IC50 of 5-FU, SEQ ID NO: 1 at 10 μg/mL); 0.0134 nM in the experiment with KB cell line (Homo sapiens, KB, read-out: IC50 of 5-FU, SEQ ID NO: 1 at 20 μg/mL); 0.00119 nM in the experiment with KB cell line (Homo sapiens, KB, read-out: IC50 of 5-FU, SEQ ID NO: 1 at 30 μg/mL). Moreover, the IC50 in the experiment on HT-29 cell line (HT-29, read-out: IC50 of 5-FU, SEQ ID NO: 1 at 0 μg/mL) was found to be 137000 nM; with HT-29 cell line (HT-29, read-out: IC50 of 5-FU, SEQ ID NO: 1 at 1 μg/mL), 173000 nM; with HT-29 cell line (HT-29, read-out: IC50 of 5-FU, SEQ ID NO: 1 at 5 μg/mL), 25900 nM; with HT-29 cell line (HT-29, read-out: IC50 of 5-FU, SEQ ID NO: 1 at 10 μg/mL), 4510 nM; with HT-29 cell line (HT-29, read-out: IC50 of 5-FU, SEQ ID NO: 1 at 20 μg/mL) it was 282 nM; with HT-29 cell line (HT-29, read-out: IC50 of 5-FU, SEQ ID NO: 1 at 40 μg/mL), 1240 nM. In the experiment on HT-29 cell line (HT-29, read-out: IC50 of 5-FU, SEQ ID NO: 1 at 80 μg/mL), the IC50 is 4880 nM. Moreover, the “Conc. of other therapeutic agents showing synergistic effect” value with KB cell line (5-FU with SEQ ID NO: 1, paired with SEQ ID NO: 1 conc.) was 0.01 to 5 µM.
Regarding `N.N.O=C([O-])C1(C(=O)[O-])CCC1.[Pt+2]` [Carboplatin, reference compound], the IC50 amounted to 477000 nM in the experiment on MDA-MB-231 cell line (SEQ ID NO: 1 at 0 μg/mL); 3980 nM in the experiment with MDA-MB-231 cell line (SEQ ID NO: 1 at 5 μg/mL); 4920 nM with MDA-MB-231 cell line (SEQ ID NO: 1 at 10 μg/mL); 8440 nM with MDA-MB-231 cell line (SEQ ID NO: 1 at 20 μg/mL); 1420 nM with MDA-MB-231 cell line (SEQ ID NO: 1 at 40 μg/mL); 5870 nM in the experiment on MDA-MB-231 cell line (SEQ ID NO: 1 at 80 μg/mL). For the same compound, in the experiment with MDA-MB-231 cell line (SEQ ID NO: 1 at […]), the IC50 amounted to 226000 nM.
Take `N.N.[Cl][Pt][Cl]` [Cisplatin, reference compound]: the IC50 with KB cell line (setting [1]) was 722 nM; with KB cell line (setting [2]), 375 nM; in the experiment with KB cell line (setting [3]), 269 nM; in the experiment on KB cell line (setting [4]) it was 134 nM; with KB cell line (SEQ ID NO: 1 at 30 μg/mL, read-out: IC50 of Cisplatin), 66.2 nM; with KB cell line (setting [5]), 7.12 nM. In addition, the IC50 is 9.93 nM with KB cell line (SEQ ID NO: 1 at 90 μg/mL, read-out: IC50 of Cisplatin); 716 nM in the experiment on PA-1 cell line (SEQ ID NO: 1 at 1 μg/mL); 93 nM with PA-1 cell line (SEQ ID NO: 1 at 5 μg/mL); 4.2 nM with PA-1 cell line (SEQ ID NO: 1 at 10 μg/mL); 0.5 nM in the experiment on PA-1 cell line (SEQ ID NO: 1 at 15 μg/mL); 0.1 nM with PA-1 cell line (SEQ ID NO: 1 at 20 μg/mL). Besides, the IC50 was 314 nM in the experiment on PA-1 cell line (SEQ ID NO: 1 at […]); 39000 nM with T24 cell line (setting [1]); 3800 nM in the experiment on T24 cell line (setting [2]); 97.1 nM in the experiment with T24 cell line (setting [3]); 34.4 nM with T24 cell line (setting [4]); 83.6 nM in the experiment on T24 cell line (setting [5]). In addition, the IC50 in the experiment with T24 cell line (SEQ ID NO: 1 at 80 μg/mL, read-out: IC50 of Cisplatin) came to 13.4 nM; in the experiment on T24 cell line (SEQ ID NO: 1 at […], read-out: IC50 of Cisplatin), 22900 nM. The “Conc. of other therapeutic agents showing synergistic effect” value in the experiment with T24 cell line (Cisplatin with SEQ ID NO: 1) is 1 to 500 µM.
For `Nc1ccn([C@@H]2O[C@H](CO)[C@@H](O)C2(F)F)c(=O)n1` [Gemcitabine, reference compound], the IC50 was found to be 7410 nM with PANC-1 cell line (PANC-1, SEQ ID NO: 1 at 0 μg/mL, read-out: IC50 of Gemcitabine); 10800 nM in the experiment with PANC-1 cell line (PANC-1, SEQ ID NO: 1 at 5 μg/mL, read-out: IC50 of Gemcitabine); 3040 nM in the experiment on PANC-1 cell line (PANC-1, SEQ ID NO: 1 at 10 μg/mL, read-out: IC50 of Gemcitabine); 39 nM in the experiment with PANC-1 cell line (PANC-1, SEQ ID NO: 1 at 20 μg/mL, read-out: IC50 of Gemcitabine); 38 nM with PANC-1 cell line (PANC-1, SEQ ID NO: 1 at 40 μg/mL, read-out: IC50 of Gemcitabine); 10600 nM with PANC-1 cell line (PANC-1, SEQ ID NO: 1 at 80 μg/mL, read-out: IC50 of Gemcitabine). In addition, the IC50 came out at 15900 nM in the experiment with PANC-1 cell line (PANC-1, SEQ ID NO: 1 at […], read-out: IC50 of Gemcitabine); 15400 nM in the experiment on T24 cell line (Homo sapiens, T-24, SEQ ID NO: 1 at 0 μg/mL, read-out: IC50 of Gemcitabine); 141 nM with T24 cell line (Homo sapiens, T-24, SEQ ID NO: 1 at 5 μg/mL, read-out: IC50 of Gemcitabine); 0.32 nM in the experiment with T24 cell line (Homo sapiens, T-24, SEQ ID NO: 1 at 10 μg/mL, read-out: IC50 of Gemcitabine); 0.02 nM with T24 cell line (Homo sapiens, T-24, SEQ ID NO: 1 at 20 μg/mL, read-out: IC50 of Gemcitabine); 802 nM in the experiment with T24 cell line (Homo sapiens, T-24, SEQ ID NO: 1 at […], read-out: IC50 of Gemcitabine). For the same compound, the “Conc. of other therapeutic agents showing synergistic effect” value with T24 cell line (Gemcitabine with SEQ ID NO: 1) lay in the range of 1 to 300 µM.
`CCc1c2c(nc3ccc(OC(=O)N4CCC(N5CCCCC5)CC4)cc13)-c1cc3c(c(=O)n1C2)COC(=O)[C@]3(O)CC` [Irinotecan, reference compound]: the IC50 was found to be 16200 nM in the experiment with HT-29 cell line (HT-29, SEQ ID NO: 1 at 0 μg/mL, read-out: IC50 of Irinotecan); 49200 nM with HT-29 cell line (HT-29, SEQ ID NO: 1 at 1 μg/mL, read-out: IC50 of Irinotecan); 2780 nM with HT-29 cell line (HT-29, SEQ ID NO: 1 at 5 μg/mL, read-out: IC50 of Irinotecan); 5450 nM with HT-29 cell line (HT-29, SEQ ID NO: 1 at 10 μg/mL, read-out: IC50 of Irinotecan); 1340 nM with HT-29 cell line (HT-29, SEQ ID NO: 1 at 20 μg/mL, read-out: IC50 of Irinotecan); 278 nM with HT-29 cell line (HT-29, SEQ ID NO: 1 at 40 μg/mL, read-out: IC50 of Irinotecan). For the same compound, in the experiment with HT-29 cell line (HT-29, SEQ ID NO: 1 at 80 μg/mL, read-out: IC50 of Irinotecan), the IC50 stood at 167 nM.
